Source: ChEMBL document CHEMBL1201862, “PubChem BioAssay data set” (2004)
Active and inactive are the calls of the source. For most assays here, no stated cut-off is given here; in the data, actives have a measured EC50 and inactives only a lower limit.

Assays:
Trypsin = Trypsin (Sus scrofa, UniProt P00761); assay: porcine trypsin inhibitors, dose response, selectivity assay for Rce1 protease inhibitor project, biochemical, quenched peptide fluorescence, cherry-pick (AID 488789)
CAAX prenyl protease 2 = CAAX prenyl protease 2 (Saccharomyces cerevisiae S288c, UniProt Q03530); type: biochemical
[1] = target: T1, Tyrosine-protein phosphatase non-receptor type 7 (Homo sapiens, UniProt P35236); assay: redox-dependent HePTP inhibition, mechanism study, biochemical, fluorescence (AID 2068); type: functional
T1 sequence (P35236 whole entry): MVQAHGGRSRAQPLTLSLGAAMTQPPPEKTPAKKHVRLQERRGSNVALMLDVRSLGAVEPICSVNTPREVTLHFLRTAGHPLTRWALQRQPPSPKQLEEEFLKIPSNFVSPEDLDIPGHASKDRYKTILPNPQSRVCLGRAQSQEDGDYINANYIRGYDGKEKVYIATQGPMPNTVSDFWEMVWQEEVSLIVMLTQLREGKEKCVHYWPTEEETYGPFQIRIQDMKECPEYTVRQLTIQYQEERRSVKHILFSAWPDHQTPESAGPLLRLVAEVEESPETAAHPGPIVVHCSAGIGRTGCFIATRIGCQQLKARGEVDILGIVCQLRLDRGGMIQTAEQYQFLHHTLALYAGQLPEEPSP

[2] = target: Dual specificity protein phosphatase 3 (Homo sapiens, UniProt P51452); assay: SAR VHR1 Fluorescent Assay for In Vitro dose response studies. [Related pubchem assays (depositor defined):AID1654, AID1661, AID1878, AID1992, AID2004, AID2070, AID2085]; type: functional
Streptococcus = assay: Group A Streptococcus viability loss, dose response, counter-screen for streptokinase expression inhibitor project, luminescence, BacTiterGlo (AID 1915); type: functional, organism-based;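 further: potency for reduction of bacterial viability or growth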
[3] = target: T2, Serine/threonine-protein phosphatase (Candida dubliniensis (strain CD36 / CBS 7987 / NCPF 3949 / NRRLY-17841) (Yeast), UniProt B9W6M3); assay: calcineurin pathway inhibitors in yeast reporter, dose response, S. cerevisiae, CDRE-lacZ, luminescence, secondary (AID 2388); type: functional, cell-based;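 further: yeast reporter cells carrying a calcineurin-responsive lacZ construct stimulated with calcium chloride; luminescent beta-galactosidase reporter signal in whole cells rather than isolated phosphatase activity; potency for inhibition where a drop in reporter signal means calcineurin blockade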
T2 sequence (B9W6M3 whole entry): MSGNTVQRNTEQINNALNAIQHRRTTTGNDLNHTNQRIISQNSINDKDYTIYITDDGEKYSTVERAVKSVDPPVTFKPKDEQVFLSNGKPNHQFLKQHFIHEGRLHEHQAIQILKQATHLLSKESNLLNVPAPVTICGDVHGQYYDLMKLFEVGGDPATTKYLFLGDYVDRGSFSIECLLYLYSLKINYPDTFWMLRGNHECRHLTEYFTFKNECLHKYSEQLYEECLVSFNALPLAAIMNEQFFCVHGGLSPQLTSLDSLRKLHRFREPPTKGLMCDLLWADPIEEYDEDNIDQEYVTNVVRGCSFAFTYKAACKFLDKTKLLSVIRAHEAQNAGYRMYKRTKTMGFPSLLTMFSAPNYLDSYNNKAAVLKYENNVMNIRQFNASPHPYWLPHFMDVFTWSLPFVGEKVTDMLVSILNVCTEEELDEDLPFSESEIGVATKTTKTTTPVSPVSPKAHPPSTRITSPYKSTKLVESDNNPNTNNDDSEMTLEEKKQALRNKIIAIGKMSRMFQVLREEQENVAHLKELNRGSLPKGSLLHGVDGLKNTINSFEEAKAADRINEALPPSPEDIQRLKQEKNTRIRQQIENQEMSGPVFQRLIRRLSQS

[4] = target: ATP-dependent molecular chaperone HSP82 (Candida albicans (strain WO-1) (Yeast), UniProt C4YTQ8); assay: loss of DOC-induced GRE-beta-galactosidase reporter signal, dose response, Hsp90 inhibitor project, S. cerevisiae, luminescence (AID 2400); type: functional, cell-based;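 further: beta-galactosidase luminescence from glucocorticoid response element reporter as proxy for Hsp90 function; inhibitor potency where signal loss means Hsp90 inhibition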
Streptokinase A = target: T3, Streptokinase A (Streptococcus pyogenes serotype M1, UniProt P10520); assay: S. pyogenes streptokinase expression inhibitors, potency, dose response, plasminogen activation absorbance, OD405 (AID 1914); type: functional, Streptococcus pyogenes M1 GAS;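 further: secreted streptokinase activity via plasminogen activation per viability signal from cell pellet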
T3 sequence (P10520 whole entry): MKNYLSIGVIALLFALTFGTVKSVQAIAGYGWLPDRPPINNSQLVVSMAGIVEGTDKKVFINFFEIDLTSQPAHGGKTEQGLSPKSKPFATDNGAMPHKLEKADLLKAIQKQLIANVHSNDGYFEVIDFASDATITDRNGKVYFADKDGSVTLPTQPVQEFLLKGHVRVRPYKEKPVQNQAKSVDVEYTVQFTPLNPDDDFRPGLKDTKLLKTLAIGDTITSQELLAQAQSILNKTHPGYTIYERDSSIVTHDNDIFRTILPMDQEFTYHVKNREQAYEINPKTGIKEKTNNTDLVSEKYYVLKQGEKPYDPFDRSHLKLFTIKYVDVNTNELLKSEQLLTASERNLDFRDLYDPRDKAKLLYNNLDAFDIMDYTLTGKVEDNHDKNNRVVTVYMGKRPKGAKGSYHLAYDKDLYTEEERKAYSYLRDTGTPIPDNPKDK

cells [5] = type: functional, cell-based
[6] = target: G-protein coupled receptor 55 (Homo sapiens, UniProt Q9Y2T6); assay: GPR55 agonists via beta-arrestin recruitment, primary screen, imaging, U2OS cells, beta-arrestin-GFP redistribution (AID 1961); type: functional
[7] = C. albicans growth with fluconazole, confirmation, fluorescence, retest (AID 2467); type: functional, cell-based
cells [8] = type: functional, cell-based; remark: listed apart in the source
INS1 = assay: beta cell apoptosis inhibitors, cytokine rescue, dose response, luminescence, retest (AID 449756); type: functional, cell-based; settings: Rattus norvegicus;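 further: cell death triggered by IL-1 beta plus TNF-alpha plus IFN-gamma mixture; protective hits raise ATP signal compared with cytokine alone wells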
[9] = system: Streptococcus sp. 'group A'; assay: growth inhibition of control SK(-) GAS strain, dose response, counter-screen for streptokinase expression inhibitor project, luminescence, kanamycin, BacTiterGlo, confirmation (AID 1900); type: functional, organism-based
[10] = NIH-3T3 fibroblast cytotoxicity, dose response, cytotoxicity control, cell-based, fluorescence, Alamar Blue, secondary assay (AID 2327); type: functional;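 further: NIH-3T3 mouse fibroblasts cultured with fluconazole at 8 µg/mL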
[11] = cytotoxicity toward NIH3T3 fibroblasts, dose response, counter-screen, cell-based, ATP luminescence, mouse fibroblasts (AID 2010); type: functional;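 further: cells exposed to compound for about 90 hours before reading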
[12] = inhibitors of intracellular T. cruzi replication, confirmation, NIH3T3 host cells, beta-gal luminescence (AID 2044); type: functional, cell-based;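 further: intracellular parasites grown in NIH/3T3 mouse fibroblasts as host cells; luminescent beta-galactosidase reporter signal from transgenic T. cruzi replicating inside host cells; inhibitors lower the luminescence signal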

Chain of G-protein coupled receptor 55 (Q9Y2T6 whole entry): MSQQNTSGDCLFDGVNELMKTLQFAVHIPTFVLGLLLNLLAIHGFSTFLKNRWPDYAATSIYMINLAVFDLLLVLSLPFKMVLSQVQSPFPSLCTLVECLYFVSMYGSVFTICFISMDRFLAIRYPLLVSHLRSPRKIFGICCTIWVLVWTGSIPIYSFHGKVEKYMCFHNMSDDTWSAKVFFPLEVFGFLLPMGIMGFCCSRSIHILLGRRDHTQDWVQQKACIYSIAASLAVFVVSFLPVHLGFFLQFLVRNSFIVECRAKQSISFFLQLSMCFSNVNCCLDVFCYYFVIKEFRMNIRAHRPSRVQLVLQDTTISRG
Chain of Dual specificity protein phosphatase 3 (P51452 whole entry): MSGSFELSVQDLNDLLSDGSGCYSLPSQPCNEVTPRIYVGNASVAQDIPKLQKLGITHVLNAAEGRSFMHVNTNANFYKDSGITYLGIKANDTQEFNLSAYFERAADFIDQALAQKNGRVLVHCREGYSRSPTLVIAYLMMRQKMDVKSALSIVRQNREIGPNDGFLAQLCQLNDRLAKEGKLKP
Chain of ATP-dependent molecular chaperone HSP82 (C4YTQ8 whole entry): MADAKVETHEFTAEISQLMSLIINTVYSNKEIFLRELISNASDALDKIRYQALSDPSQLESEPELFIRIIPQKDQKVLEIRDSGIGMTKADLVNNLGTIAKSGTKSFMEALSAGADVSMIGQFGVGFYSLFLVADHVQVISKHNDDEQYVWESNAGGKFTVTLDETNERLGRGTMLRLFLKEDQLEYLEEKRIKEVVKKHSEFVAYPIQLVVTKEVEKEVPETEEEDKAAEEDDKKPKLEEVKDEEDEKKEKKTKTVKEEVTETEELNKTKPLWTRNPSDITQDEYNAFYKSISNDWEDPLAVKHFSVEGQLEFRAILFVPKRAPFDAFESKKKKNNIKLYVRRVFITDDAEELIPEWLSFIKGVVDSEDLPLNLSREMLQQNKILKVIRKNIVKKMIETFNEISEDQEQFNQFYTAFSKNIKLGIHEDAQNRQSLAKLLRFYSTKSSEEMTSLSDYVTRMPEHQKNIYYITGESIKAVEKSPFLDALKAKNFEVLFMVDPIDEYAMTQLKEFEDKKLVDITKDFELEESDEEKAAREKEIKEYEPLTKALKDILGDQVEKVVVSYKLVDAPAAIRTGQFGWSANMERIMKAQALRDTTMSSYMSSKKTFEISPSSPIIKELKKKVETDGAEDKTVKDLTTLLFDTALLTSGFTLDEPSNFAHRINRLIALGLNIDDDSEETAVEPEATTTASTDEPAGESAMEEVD
Chain of CAAX prenyl protease 2 (Q03530 whole entry): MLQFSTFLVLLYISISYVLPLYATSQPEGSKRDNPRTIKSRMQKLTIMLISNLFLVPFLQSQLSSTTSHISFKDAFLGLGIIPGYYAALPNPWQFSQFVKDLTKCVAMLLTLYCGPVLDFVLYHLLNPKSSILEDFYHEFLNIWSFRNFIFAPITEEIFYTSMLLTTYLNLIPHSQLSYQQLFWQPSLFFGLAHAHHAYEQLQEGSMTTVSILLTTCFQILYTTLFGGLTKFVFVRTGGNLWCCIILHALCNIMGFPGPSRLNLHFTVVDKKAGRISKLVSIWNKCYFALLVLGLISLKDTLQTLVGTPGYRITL
Chain of Trypsin (P00761 whole entry): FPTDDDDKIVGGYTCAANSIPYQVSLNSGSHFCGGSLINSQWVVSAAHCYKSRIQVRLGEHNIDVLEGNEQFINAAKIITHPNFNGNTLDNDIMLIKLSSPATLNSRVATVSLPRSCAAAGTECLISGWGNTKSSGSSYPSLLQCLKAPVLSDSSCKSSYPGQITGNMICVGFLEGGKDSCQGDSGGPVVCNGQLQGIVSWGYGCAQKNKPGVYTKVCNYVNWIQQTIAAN

Question: With C=CCOc1ccc(-c2nnc(S)o2)cc1 as the compound, how does the AC50 (Trypsin) read?
Answer: 3.91 µM (active)

Question: And the AC50 (CAAX prenyl protease 2)?
Answer: 22.6 µM (active)

Question: For O=C(Nc1ccc2nc(-c3ccco3)c(-c3ccco3)nc2c1)N1CCC(c2ccccc2)C1 (configuration not stated), which IC50 [1] is on record?
Answer: 0.55 µM (active)

Question: What about the IC50 [2] of the same compound?
Answer: 14.7 µM (active)

Question: With CC1CCN(Cc2c(C(=O)N/N=C/c3cc(Cl)ccc3O)nnn2-c2nonc2N)CC1 as the compound, how does the EC50 (Streptococcus) read?
Answer: > 150 µM (not active)

Question: And the EC50 [3]?
Answer: > 180 µM (inactive)

Question: What about the EC50 [4] of the same compound?
Answer: > 150 µM (inactive)

Question: What about the EC50 (Streptokinase A) of the same compound?
Answer: 31 µM (active)

Question: What about the EC50 (cells [5]) of the same compound?
Answer: > 350 µM (not active)

Question: And the EC50 [6]?
Answer: 4.16 µM (active)

Question: And the EC50 [7]?
Answer: 0.508 µM (active)

Question: And the EC50 (cells [8])?
Answer: 10.7 µM (active)

Question: What about the AC50 (INS1) of the same compound?
Answer: 0.457 µM (active)

Question: What about the EC50 [9] of the same compound?
Answer: 27.3 µM (active)

Question: And the EC50 [10]?
Answer: > 150 µM (inconclusive)

Question: What about the EC50 [11] of the same compound?
Answer: 5.57 µM (active)

Question: What about the EC50 [12] of the same compound?
Answer: 0.541 µM (active)
